In patent US20090156662A1, “Fat Absorption Inhibitor” (ITO EN, LTD., priority 2006, published 2009):

Columns and labels:
[1] = Micellar cholesterol release: cholesterol remaining in bile acid micelles after incubation with test substance, filtration and GC; conditions: for concentration of cholesterol in the micelles / concentration of micellar cholesterol relative to the case using theaflavin or theaflavin digallate: Embodiment 1; for concentration of cholesterol in the micelles: amount of addition raised up to 0.5 mM, incubated 37° C. 1 hour, FIG. 1; for concentration of micellar cholesterol relative to the case using theaflavin or theaflavin digallate: at an amount of 0.5 mM addition
[2] = Concentration of bile acid in the micelle solution by the enzymatic method (Eaton et al.); conditions: Embodiment 3; FIG. 4
Protocol: (§1) Prepared were micelles composed of 0.5 mM of cholesterol (manufactured by Sigma Co.), 6.6 mM of sodium taurocholate (manufactured by Nacalai Tesque Inc.), 0.6 mM of phosphatidyl choline from egg yolk (manufactured by Sigma Co.), 132 mM of sodium chloride (NaCl, manufactured by Nacalai Tesque Inc.) and 15 mM of sodium phosphate (NaH2PO4.2H2O, manufactured by Nacalai Tesque Inc.). The micelles were incubated at 37° C. for 24 hours for stabilization. Then 0.1 mL solution of the theaflavins formulation (manufactured by Funakoshi Corp.) was added to each of 3 mL portions of the micelles in such a manner that their concentrations were respectively 0 μg, 200 μg and 800 μg to 1 mL micelles, and the solutions were incubated at 37° C. for 1 hour (n=3). Each solution was filtered through a 220 nm filter to obtain a clear solution. Cholesterol was extracted from each micelle solution, and cholesterol remained in the micelle was measured with a gas chromatograph (manufactured by Shimadzu Corp.) using 5α-cholestane as an internal standard.
Moreover, the concentration of bile acid was measured by the enzymatic method in accordance with the process of Eaton et al (Eaton, D. L. et al., Proc. Soc. Exp. Biol. Med. 1976, January; 151(1): 198-202).

[3] = Micellar cholesterol release: cholesterol remaining in bile acid micelles after incubation with test substance, filtration and GC; conditions: for micellar cholesterol concentration: Embodiment 4, same method as Embodiment 1, FIG. 5
Protocol: Prepared were micelles composed of 0.5 mM of cholesterol, 6.6 mM of sodium taurocholate, 0.6 mM of phosphatidyl choline of egg yolk origin, 132 mM of sodium chloride (NaCl) and 15 mM of sodium phosphate (NaH2PO4.2H2O). The micelles were incubated for 24 hours at 37° C. for stabilizing the micelles. Then 0.1 mL solution of each theaflavin (manufactured by Nagara Science Co.) was added to each of 3 mL portions of the micelles in such a manner that their concentrations were to be respectively 0 μg, 200 μg and 800 μg to 1 mL of the micelles, which were then incubated at 37° C. for 1 hour. After that, each of solutions was filtered through a 220 nm filter (manufactured by Whatman Co.) to obtain a clear micelle solution. Cholesterol was extracted from each micelle solution obtained, and the concentration of cholesterol remained in the micelles was measured using a gas chromatograph (manufactured by Shimadzu Corp.) using 5α-cholestane as an internal standard.
as §1
Next, micelles for test were prepared (pH 6.8) at a composition of 0.5 mM of cholesterol, 6.6 mM of sodium taurocholate, 0.6 mM of egg yolk phosphatidyl choline, 132 mM of sodium chloride (NaCl) and sodium phosphate (NaH2PO4.2H2O), and the micelles were incubated at 37° C. for 24 hours for stabilization. […]

Structure (SMILES) | concentration of cholesterol in the micelles [1] | concentration of micellar cholesterol relative to the case using theaflavin or theaflavin digallate [1] | micellar cholesterol concentration [3] | further results
O=C(O[C@@H]1Cc2c(O)cc(O)cc2O[C@@H]1c1cc(=O)c(O)c2c(O)c(O)cc([C@H]3Oc4cc(O)cc(O)c4C[C@H]3O)c2c1)c1cc(O)c(O)c(O)c1 [theaflavin-3-monogallate] | decreased in a manner dependent on the amount of addition | decreased about twice | – | –
O=C(O[C@@H]1Cc2c(O)cc(O)cc2O[C@@H]1c1cc(O)c(O)c2c(=O)c(O)cc([C@H]3Oc4cc(O)cc(O)c4C[C@H]3O)cc12)c1cc(O)c(O)c(O)c1 [theaflavin-3′-monogallate] | decreased in a manner dependent on the amount of addition | decreased about twice | – | –
O=C(O[C@@H]1Cc2c(O)cc(O)cc2O[C@@H]1c1cc(O)c(O)c(O)c1)c1cc(O)c(O)c(O)c1 [epigallocatechin gallate] | – | – | decreased | effect on the concentration of bile acid [2]: did not show any effect; concentration of cholesterol in the micelles ([3]; Embodiment 3, 0, 200 and 800 μg to 1 mL micelles, 37° C. 1 hour, n=3, FIG. 3): decreased
O=c1c(O)cc([C@H]2Oc3cc(O)cc(O)c3C[C@H]2O)cc2c([C@H]3Oc4cc(O)cc(O)c4C[C@H]3O)cc(O)c(O)c12 [theaflavin] | did not change | – | – | –
O=C(O[C@@H]1Cc2c(O)cc(O)cc2O[C@@H]1c1ccc(O)c(O)c1)c1cc(O)c(O)c(O)c1 [epicatechin gallate] | – | – | little effect | –
O=C(O[C@@H]1Cc2c(O)cc(O)cc2O[C@@H]1c1cc(O)c(=O)c2c(O)c(O)cc([C@H]3Oc4cc(O)cc(O)c4C[C@H]3OC(=O)c3cc(O)c(O)c(O)c3)c2c1)c1cc(O)c(O)c(O)c1 [theaflavin-3,3′-digallate] | did not change | – | little effect | micelle formation inhibitory effect ([1]; Embodiment 2, amount of addition increased up to 2 mmol/L, FIG. 2): excellent micelle formation inhibitory effect; cholesterol decreasing effect ([1]; Embodiment 2, amount of addition up to 1 mmol/L, FIG. 2): relatively gentle
